From the NIST ThermoML archive (doi:10.1016/j.jct.2014.01.030)

Key:
[1] = Liquid; for speed of sound: Sing-around technique in a fixed-path interferometer; for mass density: Vibrating tube method; for viscosity: Capillary tube (Ostwald / Ubbelohde) method
[2] = refractive index (Na D-line) (dimensionless); settings: 101.33 kPa, Liquid, Standard Abbe refractometry
[3] = molar heat capacity at constant pressure; settings: 101.33 kPa, Liquid, Small sample (50 mg) DSC
[4] = xn = mol fraction of the nth substance listed; settings: 101 kPa, Liquid, x1 = 1; for speed of sound: Sing-around technique in a fixed-path interferometer; for mass density: Vibrating tube method

CCn1cc[n+](C)c1.COS(=O)(=O)[O-] [1-ethyl-3-methylimidazolium methylsulfate]
[1], 101.33 kPa
Settings | mass density [kg/m3] | speed of sound [m/s] | viscosity [mPa·s]
288.15 K | 1287.57 | 1781 | –
293.15 K | 1284.26 | 1768 | 85.22
298.15 K | 1280.81 | 1756 | 67.06
303.15 K | 1277.28 | 1744 | 54.39
308.15 K | 1273.97 | 1732 | 44.68
313.15 K | 1270.57 | 1720 | 37.1
318.15 K | 1267.18 | 1709 | 31.27
323.15 K | 1263.81 | 1697 | 26.81
328.15 K | 1260.45 | 1686 | 22.74
333.15 K | 1257.09 | 1675 | 19.71
338.15 K | 1253.75 | 1663 | 17.25
343.15 K | 1250.42 | 1652 | 15.16

Settings | molar heat capacity at constant pressure, [3] [J/K/mol] | refractive index, [2]
288.15 K | 331.48 | –
293.15 K | – | 1.48252
298.15 K | 340.77 | 1.48125
303.15 K | – | 1.47998
308.15 K | 346.99 | 1.47868
313.15 K | – | 1.4774
318.15 K | – | 1.47612
323.15 K | – | 1.4748
328.15 K | – | 1.4735
333.15 K | – | 1.47218
338.15 K | – | 1.47086
343.15 K | – | 1.46954

CCC(C)O (configuration not stated) [butan-2-ol]
[1], 101 kPa
Settings | mass density [kg/m3] | speed of sound [m/s]
288.15 K | 810.96 | 1249
298.15 K | 802.82 | 1213
308.15 K | 794.34 | 1177

Settings | refractive index
[2], 298.15 K | 1.39487

CCC(C)O (configuration not stated) [butan-2-ol] + CCn1cc[n+](C)c1.COS(=O)(=O)[O-]
[4]
Settings | mass density [kg/m3] | speed of sound [m/s]
288.15 K | 810.96 | 1249
298.15 K | 802.82 | 1213
308.15 K | 794.34 | 1177

CCO [ethanol]
[1], 101 kPa
Settings | mass density [kg/m3] | speed of sound [m/s]
288.15 K | 794.04 | 1179
298.15 K | 785.52 | 1145
308.15 K | 776.87 | 1111

Settings | refractive index
[2], 298.15 K | 1.35907

CCO [ethanol] + CCn1cc[n+](C)c1.COS(=O)(=O)[O-]
[4]
Settings | mass density [kg/m3] | speed of sound [m/s]
288.15 K | 794.04 | 1179
298.15 K | 785.52 | 1145
308.15 K | 776.87 | 1111

CO [methanol]
[1], 101 kPa
Settings | mass density [kg/m3] | speed of sound [m/s]
288.15 K | 796.46 | 1137
298.15 K | 787.1 | 1104
308.15 K | 777.64 | 1071

Settings | refractive index
[2], 298.15 K | 1.32649

CO [methanol] + CCn1cc[n+](C)c1.COS(=O)(=O)[O-]
[4]
Settings | mass density [kg/m3] | speed of sound [m/s]
288.15 K | 796.46 | 1137
298.15 K | 787.1 | 1104
308.15 K | 777.64 | 1071

CCCCCO [pentan-1-ol]
[1], 101 kPa
Settings | mass density [kg/m3] | speed of sound [m/s]
288.15 K | 818.25 | 1310
298.15 K | 810.99 | 1276
308.15 K | 803.61 | 1243

Settings | refractive index
[2], 298.15 K | 1.40774

CCCCCO [pentan-1-ol] + CCn1cc[n+](C)c1.COS(=O)(=O)[O-]
[4]
Settings | mass density [kg/m3] | speed of sound [m/s]
288.15 K | 818.25 | 1310
298.15 K | 810.99 | 1276
308.15 K | 803.61 | 1243

CCCO [propan-1-ol]
[1], 101 kPa
Settings | mass density [kg/m3] | speed of sound [m/s]
288.15 K | 808.48 | 1243
298.15 K | 800.5 | 1208
308.15 K | 792.38 | 1174

Settings | refractive index
[2], 298.15 K | 1.38286

CCCO [propan-1-ol] + CCn1cc[n+](C)c1.COS(=O)(=O)[O-]
[4]
Settings | mass density [kg/m3] | speed of sound [m/s]
288.15 K | 808.48 | 1243
298.15 K | 800.5 | 1208
308.15 K | 792.38 | 1174

CC(C)O [propan-2-ol]
[1], 101 kPa
Settings | mass density [kg/m3] | speed of sound [m/s]
288.15 K | 790.01 | 1177
298.15 K | 781.67 | 1141
308.15 K | 773.03 | 1106

Settings | refractive index
[2], 298.15 K | 1.37523

CC(C)O [propan-2-ol] + CCn1cc[n+](C)c1.COS(=O)(=O)[O-]
[4]
Settings | mass density [kg/m3] | speed of sound [m/s]
288.15 K | 790.01 | 1177
298.15 K | 781.67 | 1141
308.15 K | 773.03 | 1106
